Common to all, as to format: biochemical
Test [1] has as its target T1, C1r from human plasma, activated, two-chain form (Homo sapiens, UniProt P00736).
T1 construct: from tissue; host or cells: human plasma
T1 sequence (P00736 18-463 partner limits assumed): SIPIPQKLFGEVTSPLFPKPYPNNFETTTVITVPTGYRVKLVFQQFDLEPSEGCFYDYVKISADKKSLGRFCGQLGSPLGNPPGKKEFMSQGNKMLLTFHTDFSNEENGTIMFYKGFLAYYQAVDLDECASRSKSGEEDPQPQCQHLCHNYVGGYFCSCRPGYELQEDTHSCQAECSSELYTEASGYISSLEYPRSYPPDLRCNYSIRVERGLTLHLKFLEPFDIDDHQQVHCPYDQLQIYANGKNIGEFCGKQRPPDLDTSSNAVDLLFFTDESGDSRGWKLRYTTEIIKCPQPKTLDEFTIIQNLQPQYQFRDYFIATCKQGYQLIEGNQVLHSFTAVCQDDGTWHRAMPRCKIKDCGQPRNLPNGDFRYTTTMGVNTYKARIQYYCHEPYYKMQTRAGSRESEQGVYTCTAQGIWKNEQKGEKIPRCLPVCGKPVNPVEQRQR
T1 sequence (P00736 464-705 limits assumed): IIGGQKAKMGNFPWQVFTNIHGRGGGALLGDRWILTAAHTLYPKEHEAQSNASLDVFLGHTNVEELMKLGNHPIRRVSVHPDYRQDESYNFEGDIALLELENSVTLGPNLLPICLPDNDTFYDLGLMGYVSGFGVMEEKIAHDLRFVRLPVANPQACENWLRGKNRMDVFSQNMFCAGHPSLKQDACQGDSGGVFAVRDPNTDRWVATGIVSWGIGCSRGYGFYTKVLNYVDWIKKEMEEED
The test can be described thus: Color substrate test for C1r inhibition (Example A). To be noted: amidolytic C1r activity, substrate Cbz-Gly-Arg-S-Bzl; read-out: C1R IC50 according to Example A. An excerpt: Color Substrate Test for C1r Inhibition

The target of test [2] is T2, C1s from human plasma, activated, two-chain form (Homo sapiens, UniProt P09871).
T2 construct: from tissue; host or cells: human plasma
T2 sequence (P09871 16-437 partner limits assumed): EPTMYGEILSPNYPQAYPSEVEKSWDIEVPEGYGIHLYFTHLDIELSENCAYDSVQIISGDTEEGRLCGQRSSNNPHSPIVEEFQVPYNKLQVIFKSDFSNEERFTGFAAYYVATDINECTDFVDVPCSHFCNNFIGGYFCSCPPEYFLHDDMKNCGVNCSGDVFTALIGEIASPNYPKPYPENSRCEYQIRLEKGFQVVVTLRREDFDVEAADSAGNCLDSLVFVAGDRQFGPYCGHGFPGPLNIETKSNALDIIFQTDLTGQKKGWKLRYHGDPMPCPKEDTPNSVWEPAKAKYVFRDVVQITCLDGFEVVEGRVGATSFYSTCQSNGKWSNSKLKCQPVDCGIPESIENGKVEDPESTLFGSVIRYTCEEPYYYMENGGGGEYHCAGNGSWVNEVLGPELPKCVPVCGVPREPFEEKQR
T2 sequence (P09871 438-688 limits assumed): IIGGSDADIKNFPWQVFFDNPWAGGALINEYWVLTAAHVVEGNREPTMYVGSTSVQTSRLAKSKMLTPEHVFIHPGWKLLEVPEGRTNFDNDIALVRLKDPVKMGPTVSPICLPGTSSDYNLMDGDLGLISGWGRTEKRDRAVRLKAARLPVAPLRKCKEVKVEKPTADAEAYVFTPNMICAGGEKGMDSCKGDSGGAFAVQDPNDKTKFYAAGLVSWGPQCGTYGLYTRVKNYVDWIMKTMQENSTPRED
The test can be described thus: Color substrate test for C1s inhibition (Example B). The following applies: amidolytic C1s activity, substrate Cbz-Gly-Arg-S-Bzl; read-out: C1S IC50 according to Example B. An excerpt: Material and Methods: Color Subrate Test for C1s Inhibition

The next test concerns the target T3, factor D (Homo sapiens, UniProt P00746).
T3 construct: purchased Calbiochem 341273
The test is described as follows: Inhibition of the protease factor D (Example D). To be noted: substrate Z-Lys-SBzl, run along as inhibitor in the test. From the text: Example D Testing of Inhibitors for Inhibition of the Protease Factor D In the alternative route of the complement system, factor D performs a central function. Owing to the low plasma concentration of factor D, the enzymatic step involving the cleavage of factor B by factor D constitutes the rate-determining step in the alternative route of complement activation. Owing to the limiting role which this enzyme plays in the alternative route, factor D is a target for the inhibition of the complement system. The commercial substrate Z-Lys-SBzl*HCl is converted by the enzyme factor D (literature: Kam, C. M. et al., J. Biol. Chem. 262, 1987, 3444-3451). The detection of the cleaved substrate is effected by reaction with Ellmann's reagent. The product formed is detected spectrophotometrically. The reaction can be monitored online. This permits measurements of enzyme kinetics. [table] The batches are pipetted together into microtiter plates. After mixing of buffer, substrate and Ellmann's reagent (possibly inhibitors), the enzyme reaction is started by adding in each case 5 μl of factor D. Incubation takes place at room temperature for 60 minutes. Measurement at 405 nm for 1 hour at 3 minute intervals The result is plotted graphically. […]

Where a name gives a salt, the structure may show the parent alone. A value given as a limit tells only on which side of the number the result lay.

Usually IC50 stands for the concentration that gives 50% inhibition.

T3 sequence (P00746 26-253): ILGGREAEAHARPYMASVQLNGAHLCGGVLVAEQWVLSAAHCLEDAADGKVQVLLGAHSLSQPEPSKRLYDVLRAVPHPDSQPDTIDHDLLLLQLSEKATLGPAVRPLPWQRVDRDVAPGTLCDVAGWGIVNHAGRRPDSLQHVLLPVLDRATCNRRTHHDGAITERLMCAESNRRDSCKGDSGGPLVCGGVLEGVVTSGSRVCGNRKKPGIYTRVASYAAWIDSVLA

For `N=C(N)c1ccc(CNC(=O)[C@@H]2CCN2C(=O)[C@H](NCC(=O)O)C2CCCCC2)s1` [Example 31, HOOC—CH2-(D)Chg-Aze-NH-CH2-5-(2-am)-thioph], the 50% inhibitory concentration (IC50) in test [1] is 3 µM; in test [2], 10 µM. The like results for `N=C(N)c1ccc(CNC(=O)[C@@H]2C=CCN2C(=O)[C@@H](CC2CCCCC2)NCC(=O)O)s1` [Example 32, HOOC—CH2-(D)Cha-Pyr-NH—CH2-5-(2-am)-thioph.CH3COOH] were, in that order, 10 µM and 30 µM. For the molecule `N=C(N)c1ccc(CNC(=O)[C@@H]2CSCN2C(=O)[C@@H](CC2CCCCC2)NCC(=O)O)s1` [Example 33, HOOC—CH2-(D)Cha-Thz-4-CO—NH—CH2-5-(2-am)-thioph.2HCl], the half-maximal inhibitory concentration (IC50) in test [1] and in test [2] was 40 µM each time. For the molecule `N=C(N)c1coc(CNC(=O)[C@@H]2CCCN2C(=O)[C@@H](CC2CCCCC2)NCC(=O)O)c1` [Example 34, HOOC—CH2-(D)Cha-Pro-NH—CH2-5-(3-am)-fur.CH3COOH], the IC50 came to 70 µM in test [1] and 20 µM in test [2]. As to `N=C(N)c1csc(CNC(=O)[C@@H]2C=CCN2C(=O)[C@@H](CC2CCCCC2)NCC(=O)O)c1` [Example 38, HOOC—CH2-(D)Cha-Pyr-NH—CH2-5-(3-am)-thioph.CH3COOH], the IC50 worked out at 10 µM in test [1] and 5 µM in test [2].

`N=C(N)c1csc(CNC(=O)[C@@H]2CCN2C(=O)[C@H](NCC(=O)O)C2CCCCC2)c1` [Example 39, HOOC—CH2-(D)Chg-Aze-NH—CH2-5-(3-am)-thioph]: the IC50 was 2 µM in test [1] and 10 µM in test [2].

`N=C(N)c1csc(CNC(=O)[C@@H]2C=CCN2C(=O)C(NCC(=O)O)C2CCCCCC2)c1` (some centres unmarked) [Example 41, HOOC—CH2-Cheg-Pyr-NH—CH2-5-(3-am)-thioph.CH3COOH]: the half-maximal inhibitory concentration (IC50) in test [1] and in test [2] was 2 µM each time. In the case of `N=C(N)c1csc(CNC(=O)[C@@H]2C=CCN2C(=O)C(NCC(=O)O)C2CCCC2)c1` (stereo partly drawn) [Example 42, HOOC—CH2-Cpg-Pyr-NH—CH2-5-(3-am)-thioph.CH3COOH], the IC50 in test [1] was found to be 0.7 µM; in test [2] it was 1 µM. The matching figures for `N=C(N)c1csc(CNC(=O)[C@@H]2CCCN2C(=O)[C@H](NCC(=O)O)C2CCCCC2)c1` [Example 43, HOOC—CH2-(D)Chg-Pro-NH—CH2-5-(3-am).thioph.2HCl]: 6 µM and 10 µM.

Turning to `N=C(N)c1coc(CNC(=O)[C@@H]2C=CCN2C(=O)[C@@H](CC2CCCCC2)NCC(=O)O)c1` [Example 44, HOOC—CH2-(D)Cha-Pyr-NH—CH2-5-(3-am)-fur.CH3COOH], the half-maximal inhibitory concentration (IC50) was determined as 40 µM in test [1] and 3 µM in test [2]. The like results for `N=C(N)c1csc(CNC(=O)C2SCCN2C(=O)[C@H](NCC(=O)O)C2CCCCC2)c1` (stereo partly drawn) [Example 45, HOOC—CH2-(D)Chg-Thz-2-CO—NH—CH2-5-(3-am)-thioph] were, in that order, 6 µM and 20 µM. The matching figures for `N=C(N)c1csc(CNC(=O)C2SCCN2C(=O)[C@@H](CC2CCCCC2)NCC(=O)O)c1` (stereo partly drawn) [Example 46, HOOC—CH2-(D)Cha-Thz-2-CO—NH—CH2-5-(3-am)-thioph.2HCl]: 40 µM and 20 µM. The matching figures for `N=C(N)c1csc(CNC(=O)[C@@H]2CC3CCCCC3N2C(=O)[C@@H](CC2CCCCC2)NCC(=O)O)c1` (some centres unmarked) [Example 47, HOOC—CH2-(D)Cha-(L)Ohi-2-CO—NH—CH2-5-(3-am)-thioph.HCl]: 10 µM and 50 µM. In the case of `N=C(N)c1csc(CNC(=O)[C@@H]2CC3CCCCC3N2C(=O)[C@H](NCC(=O)O)C2CCCCC2)c1` (some centres unmarked) [Example 48, HOOC—CH2-(D)Chg-(L)Ohi-2-CO—NH—CH2-5-(3-am)-thioph.HCl], the half-maximal inhibitory concentration (IC50) worked out at 50 µM in test [1] and 30 µM in test [2]. With `N=C(N)c1csc(CNC(=O)C2C=CCN2C(=O)C(NCC(=O)O)C2CCCCC2)c1Cl` (stereo not drawn) [Example 49, HOOC—CH2-(D)Chg-Pyr-NH—CH2-5-(4-Cl-3-am)-thioph.CH3COOH], the 50% inhibitory concentration (IC50) in test [1] and in test [2] was 1 µM throughout. Consider `N=C(N)c1csc(CNC(=O)C2C=CCN2C(=O)C(CC2CCCCC2)NCC(=O)O)c1Cl` (stereo not drawn) [Example 50, HOOC—CH2(D)Cha-Pyr-NH—CH2-5-(4-Cl-3-am)-thioph.CH3COOH], for which the half-maximal inhibitory concentration (IC50) in test [1] turned out to be 20 µM; in test [2], 3 µM. The like results for `Cc1c(C(=N)N)csc1CNC(=O)[C@@H]1C=CCN1C(=O)[C@H](NCC(=O)O)C1CCCCC1` [Example 51, HOOC—CH2-(D)Chg-Pyr-NH—CH2-5-(4-Me-3-am)-thioph.CH3COOH] were, in that order, 40 µM and 3 µM. Turning to `N=C(N)c1ccc2cc(OC(=O)c3ccc(N=C(N)N)cc3)ccc2c1` [FUT-175], the “inhibition of factor D” value against factor D is “effective inhibitor”. Turning to “HOOC—CH2-(D)Cha-Pyr-NH—CH2-5-(3-Me-2-am)-thioph.CH3COOH [Example 53]”, the IC50 in test [1] came to 8 µM; in test [2] it was 20 µM. Regarding “HOOC—CH2-(D,L)Cpg-Pyr-NH—CH2-5-(3-Me-3-am)-thioph.CH3COOH [Example 52]”, the figures for the half-inhibitory concentration (IC50) in test [1] and in test [2] were 10 µM and 4 µM, respectively.

As for “HOOC—CH2—CH2-(D)Cha-Pro-NH-CH2-5-(2-am)-thioph.CH3COOH [Example 30]”, the IC50 is over 100 µM in test [1] and 5 µM in test [2].
